Experiments:
[1] = test system: Lgl1^+/− mice; assay: three-chamber social interaction test after NMDAR blocker injection; type: in vivo, mouse
Protocol: Pharmacological blockers of NMDARs were used, and animals tested in the three-chamber social interaction test.
Social interaction test—The social interaction test was performed as previously described (Yang et al., 2011). The sociability apparatus (Stoetling) has three 20 cm×40 cm chambers and two target enclosures 7 cm in diameter and 15 cm tall. During testing, the apparatus was surrounded by opaque panels to prevent mice from seeing out of the apparatus.
Animals were placed in the center chamber of the 3-chambered sociability apparatus with the doors between chambers closed for 10 minutes to habituate to the testing conditions. The doors were removed, and mice were allowed to explore the full field for 10 minutes. Non-littermate strain- and age-matched target mice from a separate cage were introduced during the social interaction phase of the test. For the social novelty phase, target mice from the social interaction phase were kept in the same location and a novel target mouse was introduced to the opposite chamber. For scoring of interaction time, ROIs containing the target mouse and novel object were selected in MATLAB. ROIs were selected by experimenters blinded to the animal genotypes or virus treatment.
Scoring for distance travelled and thigmotaxis during the open field test, as well as time spent interacting with objects in the Novel Object Recognition test and time spent interacting with target mice and objects in the Social Interaction test was performed using Autotyping 15.04 in MATLAB 2014b (Patel et al., 2014)(MathWorks).

[2] = test system: Lgl1^+/− mice; assay: nestlet shredding (stereotyped repetitive behavior); type: in vivo, mouse; conditions: Lgl1^+/+ and Lgl1^+/− mice; ketamine injection vs saline
Protocol: Nestlet shredding—Mice were removed from their home cage and placed individually into a clean novel cage containing a weighed piece of cotton nesting material of approximately 2.8 g. Mice were left in the cage for 60 minutes. At the end of the testing period, mice were returned to their home cage. Shredded material was separated from the undisturbed portion, which was weighed (Li et al., 2006).

## C[C@]12N[C@H](Cc3ccccc31)c1ccccc12 [MK-801, dizocilpine]
[1]; intraperitoneal injection of 0.3 mg/kg MK-801
  preference for social interaction (social interaction phase): strongly preferred social interaction

## CC12CC3CC(C)(C1)CC(N)(C3)C2 [memantine]
[1]; intraperitoneal injection of 20 mg/kg memantine
  preference for social interaction (social interaction phase): strongly preferred social interaction

## CNC1(c2ccccc2Cl)CCCCC1=O (stereo not shown) [ketamine]
[1]; intraperitoneal injection of 30 mg/kg ketamine, compared with control animals
  preference for social interaction (social interaction phase): clear preference for social interaction
[2]
  nestlet-shredding activity: did not change

Reference: patent publication US12702650B2, “Methods and compositions for treating smith-magenis syndrome” (The Regents of the University of California, priority 2019, dated 2026)
